# Target: human TLR7 (Homo sapiens (Human), UniProt Q9NYK1)
# Assay: Test for evaluating the inhibition of the activation of human TLR7 (SEAP reporter, TLR7/NF-κB/SEAPorter HEK293 cell)
# Type: cell-based
# Conditions: R-848 200 nmol/L; for IC50: SEAP reporter; for inhibitory effect against TLR7 in the test for evaluating inhibition of the activation of TLR7: SEAP activity, result in words
# In short: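 The readout is secreted alkaline phosphatase under NF-κB response-element control in TLR7/NF-κB/SEAPorter HEK293 cells, which stably express full-length human TLR7. Cells were plated at 5×10^4 per well and grown overnight at 37° C, 5% CO2, in DMEM/10% FBS/blasticidin.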
# Chain of human TLR7 (Q9NYK1 27-1049): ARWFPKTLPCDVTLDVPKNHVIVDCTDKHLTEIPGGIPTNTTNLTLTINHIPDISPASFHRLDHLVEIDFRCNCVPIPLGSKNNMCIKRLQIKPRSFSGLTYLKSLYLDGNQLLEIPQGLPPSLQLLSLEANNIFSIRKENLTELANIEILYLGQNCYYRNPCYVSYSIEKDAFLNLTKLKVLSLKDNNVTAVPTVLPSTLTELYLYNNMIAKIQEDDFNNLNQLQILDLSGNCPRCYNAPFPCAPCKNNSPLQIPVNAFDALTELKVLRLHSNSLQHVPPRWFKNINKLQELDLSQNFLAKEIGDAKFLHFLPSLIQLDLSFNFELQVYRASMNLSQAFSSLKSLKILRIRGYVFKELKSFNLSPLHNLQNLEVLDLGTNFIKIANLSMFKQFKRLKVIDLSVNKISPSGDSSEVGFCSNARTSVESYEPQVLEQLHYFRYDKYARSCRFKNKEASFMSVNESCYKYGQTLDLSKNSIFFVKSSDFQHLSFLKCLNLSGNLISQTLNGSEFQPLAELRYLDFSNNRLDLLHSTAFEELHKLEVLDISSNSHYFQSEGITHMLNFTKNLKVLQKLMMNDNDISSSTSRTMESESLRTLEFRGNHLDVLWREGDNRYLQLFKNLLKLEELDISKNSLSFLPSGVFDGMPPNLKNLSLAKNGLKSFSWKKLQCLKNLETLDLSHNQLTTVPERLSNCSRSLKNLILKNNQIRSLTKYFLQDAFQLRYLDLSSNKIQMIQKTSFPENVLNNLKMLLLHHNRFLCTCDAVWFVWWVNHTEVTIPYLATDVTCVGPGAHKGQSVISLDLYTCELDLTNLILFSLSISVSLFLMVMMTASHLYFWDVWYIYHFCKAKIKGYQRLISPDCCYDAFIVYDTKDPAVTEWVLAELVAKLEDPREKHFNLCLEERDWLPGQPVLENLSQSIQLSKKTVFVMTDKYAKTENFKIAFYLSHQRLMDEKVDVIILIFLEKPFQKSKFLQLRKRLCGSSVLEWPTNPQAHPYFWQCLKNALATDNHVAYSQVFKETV
Structure (SMILES),IC50 [nM],inhibitory effect against TLR7 in the test for evaluating inhibition of the activation of TLR7
"COc1nc(C)c2nc(-c3cncnc3)n(Cc3ccc([C@@H]4CN5CCC4CC5)cc3F)c2n1 [Example 444, 9-{4-[(3R)-1-Azabicyclo[2.2.2]oct-3-yl]-2-fluorobenzyl}-2-methoxy-6-methyl-8-(pyrimidin-5-yl)-9H-purine]",98,
Cc1nc(O)nc2c1nc(-c1cncc(F)c1)n2Cc1ccc(C2=CN3CCC2CC3)c(F)c1 [Example 358],18,
CCOc1nc(C)c2nc(-c3cncc(F)c3)n(Cc3cnc(Cl)c(F)c3)c2n1 [Example 338],667,
CN(C)Cc1ccc(Cn2c(-c3cncc(F)c3)nc3c(N)nc(OCC4CC4)nc32)cc1 [Example 160],1300,
"COc1nc(C)c2nc(-c3cncc(F)c3)n(Cc3ccc(CN4C[C@@H]5C[C@H]4CN5C)cc3F)c2n1 [Example 280, 9-(2-fluoro-4-{[(1S,4S)-5-methyl-2,5-diazabicyclo[2.2.1]hept-2-yl]methyl}benzyl)-8-(5-fluoropyridin-3-yl)-2-methoxy-6-methyl-9H-purine]",3,potent inhibitory effect against TLR7
CCOc1nc(C)c2nc(-c3cncc(F)c3)n(Cc3cc(OC)c(C4CN5CCC4CC5)cc3F)c2n1 (stereo not shown) [Example 317],1610,
CCOc1nc(N)c2nc(-c3cncc(F)c3)n(Cc3cnn(C)c3)c2n1 [Example 37],2700,
COc1nc(C)c2nc(-c3cncc(C#N)c3)n(Cc3ccc(C4CCNCC4)cc3F)c2n1 [Example 343],67,potent inhibitory effect against TLR7
CCCCOc1nc(C)c2nc(-c3cncc(F)c3)n(Cc3ccc(CN4CCOCC4)cc3)c2n1 [Example 112],100,
"COc1nc(C)c2nc(-c3cncc(F)c3)n(Cc3ccc([C@@H]4CN5CCC4CC5)cc3)c2n1 [Example 177, 9-{4-[(3R)-1-Azabicyclo[2.2.2]oct-3-yl]benzyl}-8-(5-fluoropyridin-3-yl)-2-methoxy-6-methyl-9H-purine]",10,
"CCOc1nc(C)c2nc(-c3cncc(C#N)c3)n(Cc3ccc(CN4C[C@@H]5C[C@H]4CN5C)cc3F)c2n1 [Example 311, 5-[2-ethoxy-9-(2-fluoro-4-{[(1S,4S)-5-methyl-2,5-diazabicyclo[2.2.1]hept-2-yl]methyl}benzyl)-6-methyl-9H-purin-8-yl]pyridine-3-carbonitrile]",11,potent inhibitory effect against TLR7
"COc1nc(C)c2nc(-c3cccnc3)n(Cc3ccc(C4CCN(C)CC4)cc3F)c2n1 [Example 292, 9-[2-fluoro-4-(1-methylpiperidin-4-yl)benzyl]-2-methoxy-6-methyl-8-(pyridin-3-yl)-9H-purine]",39,potent inhibitory effect against TLR7
COc1nc(C)c2nc(-c3cncc(F)c3)n(Cc3cc(Br)ccc3F)c2n1 [Example 326],389,
CCOc1nc(C)c2nc(-c3cncc(F)c3)n(Cc3ccc(Br)cc3C#N)c2n1 [Example 339],160,
CCOc1nc(N)c2nc(-c3cncc(F)c3)n(Cc3ccc(CN4C[C@@H]5C[C@H]4CO5)cc3)c2n1 [Example 96],80,potent inhibitory effect against TLR7
CCCCOc1nc(N)c2nc(-c3cnn(C)c3)n(Cc3ccccc3)c2n1 [Example 8],9300,
CCCOc1nc(C)c2nc(-c3cncc(C)c3)n(Cc3ccc(O[C@@H]4CN5CCC4CC5)nc3)c2n1 [Example 76],400,
CCOc1nc(N)c2nc(-c3cncc(F)c3)n(Cc3ccccc3)c2n1 [Example 21],700,
"COc1nc(C)c2nc(-c3cncc(F)c3)n(Cc3ccc(O[C@@H]4CN5CCC4CC5)nc3)c2n1 [Example 69, 9-({6-[(3S)-1-azabicyclo[2.2.2]oct-3-yloxy]pyridin-3-yl}methyl)-8-(5-fluoropyridin-3-yl)-2-methoxy-6-methyl-9H-purine]",130,potent inhibitory effect against TLR7
COc1nc(C)c2nc(-c3cncc(F)c3)n(Cc3ccc(O[C@H]4C[C@H]5CC[C@@H](C4)N5)cc3F)c2n1 [Example 433],9,potent inhibitory effect against TLR7
CCCCOc1nc(N)c2nc(-c3cncc(OC)c3)n(Cc3ccccc3)c2n1 [Example 10],800,
CCOc1nc(N)c2nc(-c3cncc(F)c3)n(Cc3cccc(OCCN4CCCC4)c3)c2n1 [Example 51],59,potent inhibitory effect against TLR7
CCOc1nc(N)c2nc(-c3cncc(F)c3)n(Cc3ccc(O[C@H]4CN5CCC4CC5)nc3)c2n1 [Example 41],140,
CCOc1nc(N)c2nc(-c3cncc(F)c3)n(Cc3ccc(CN4C[C@@H]5C[C@H]4CN5)cc3)c2n1 [Example 124],220,
"CCN1C[C@@H]2C[C@H]1CN2Cc1ccc(Cn2c(-c3cncc(C#N)c3)nc3c(C)nc(OC)nc32)c(F)c1 [Example 309, 5-[9-(4-{[(1S,4S)-5-ethyl-2,5-diazabicyclo[2.2.1]hept-2-yl]methyl}-2-fluorobenzyl)-2-methoxy-6-methyl-9H-purin-8-yl]pyridine-3-carbonitrile]",20,potent inhibitory effect against TLR7

Structure (SMILES),IC50 [nM],inhibitory effect against TLR7 in the test for evaluating inhibition of the activation of TLR7
"CCOc1nc(N)c2nc(-c3cncc(F)c3)n(Cc3ccc(COCCN(C)C)cc3)c2n1 [Example 140, 9-(4-{[2-(Dimethylamino)ethoxy]methyl}benzyl)-2-ethoxy-8-(5-fluoropyridin-3-yl)-9H-purine-6-amine]",120,
CCOc1nc(N)c2nc(-c3cncc(F)c3)n(Cc3ccc(CN4CC(C(F)F)C4)cc3)c2n1 [Example 105],59,potent inhibitory effect against TLR7
CCCCOc1nc(N)c2nc(-c3cncc(F)c3)n(Cc3ccc(CN(C)C)cc3)c2n1 [Example 82],400,
CCOc1nc(N)c2nc(-c3cncc(F)c3)n(Cc3cccnc3)c2n1 [Example 22],2000,
COCCOc1nc(N)c2nc(-c3cncc(F)c3)n(Cc3cccc(CN4CCOCC4)c3)c2n1 [Example 90],4200,
CCCCOc1nc(N)c2nc(-c3cncc(CO)c3)n(Cc3ccccc3)c2n1 [Example 20],22500,
CCCCOc1nc(N)c2nc(-c3ccncc3)n(Cc3ccccc3)c2n1 [Example 4],7800,
"COc1nc(C)c2nc(-c3cccnc3)n(Cc3ccc(OC4CC5CCC(C4)N5C)cc3F)c2n1 (stereo not drawn) [Example 297, 9-(2-fluoro-4-{[(3-endo)-8-methyl-8-azabicyclo[3.2.1]oct-3-yl]oxy}benzyl)-2-methoxy-6-methyl-8-(pyridin-3-yl)-9H-purine]",50,potent inhibitory effect against TLR7
CCCCOc1nc(C)c2nc(-c3cncc(F)c3)n(Cc3ccc(CO)cc3)c2n1 [Example 79],3500,
CCOc1nc(N)c2nc(-c3cncc(C)c3)n(Cc3ccc(CN(C)C)cc3)c2n1 [Example 33],820,
CCOc1nc(N)c2nc(-c3cncc(F)c3)n(Cc3ccc(OCCCN(C)C)nc3)c2n1 [Example 42],550,
CCCOc1nc(C)c2nc(-c3cncc(F)c3)n(Cc3ccc(O[C@@H]4CN5CCC4CC5)nc3)c2n1 [Example 75],200,
CCOc1nc(C)c2nc(-c3cncc(F)c3)n(Cc3ccc(CN4[C@@H]5CC[C@H]4CN(C)C5)cc3)c2n1 [Example 265],57,potent inhibitory effect against TLR7
"COc1nc(C)c2nc(-c3cncnc3)n(Cc3ccc([C@H]4CN5CCC4CC5)cc3F)c2n1 [Example 445, 9-{4-[(3S)-1-azabicyclo[2.2.2]oct-3-yl]-2-fluorobenzyl}-2-methoxy-6-methyl-8-(pyrimidin-5-yl)-9H-purine]",21,potent inhibitory effect against TLR7
"COc1nc(C)c2nc(-c3cncc(F)c3)n(Cc3cc(C4CN5CCC4CC5)ccc3F)c2n1 (stereo not shown) [Example 443, 9-[5-(1-azabicyclo[2.2.2]oct-3-yl)-2-fluorobenzyl]-8-(5-fluoropyridin-3-yl)-2-methoxy-6-methyl-9H-purine]",17,potent inhibitory effect against TLR7
CCOc1nc(N)c2nc(-c3cncc(F)c3)n(Cc3ccc(CN4CC(C#N)C4)cc3)c2n1 [Example 103],1600,
CCOc1nc(N)c2nc(-c3cncc(F)c3)n(Cc3cc(F)ccc3F)c2n1 [Example 240],357,
CCOc1nc(N)c2nc(-c3cncc(C(F)F)c3)n(Cc3ccccc3)c2n1 [Example 30],2800,
CCOc1nc(C)c2nc(-c3cncc(F)c3)n(Cc3ncc(C4CN5CCC4CC5)cc3F)c2n1 (stereo not shown) [Example 379],506,
COCCOc1nc(N)c2nc(-c3cnc4ccccc4c3)n(Cc3ccc(CN(C)C)cc3)c2n1 [Example 32],8600,
CCCCOc1nc(N)c2nc(-c3cncc(Cl)c3)n(Cc3ccccc3)c2n1 [Example 17],1100,
"CCOc1nc(N)c2nc(-c3cncc(F)c3)n(Cc3ccc([C@H]4CN5CCC4CC5)cc3)c2n1 [Example 176, 9-{4-[(3S)-1-azabicyclo[2.2.2]oct-3-yl]benzyl}-2-ethoxy-8-(5-fluoropyridin-3-yl)-9H-purine-6-amine]",11,potent inhibitory effect against TLR7
"CCOc1nc(N)c2nc(-c3cncc(F)c3)n(Cc3ccc(CN(C)C)cc3)c2n1 [Example 80, 9-{4-[(Dimethylamino)methyl]benzyl}-2-ethoxy-8-(5-fluoropyridin-3-yl)-9H-purine-6-amine]",540,
COCCOc1nc(N)c2nc(-c3cncc(F)c3)n(Cc3ccc(CN4CCCCC4)cc3)c2n1 [Example 91],250,
